Laboratory results reported in patent EP4643858A1, “METHODS AND PHARMACEUTICAL COMPOSITION FOR THE TREATMENT OF UTERINE DISEASE” (Institut National de la Santé et de la Recherche Médicale, priority 2024, dated 2025).

What was measured:
P-AKTSer473 [1] = experiment: Patient myometrium and myoma samples treated in vitro, Western blot of P-AKT; format: cell-based, human; settings: myometrium and myoma samples from patients treated in vitro 24 hours at different doses; Western blot P-AKTSer473 (Figure 4)
Description: (§1) Tissues were crushed and then lysed in RIPA lysis buffer supplemented with phosphatase and protease inhibitors. Protein concentrations were determined through the bicinchoninic acid method (Pierce). Protein extracts were analyzed by Western blot where the transfer membrane was incubated with a primary antibody followed by the appropriate peroxidase-conjugated secondary antibody (dilution 1:10,000). Chemiluminescence were acquired using a Chemidoc MP and bands were quantitated with the Image Lab Software (Bio-Rad Laboratories).
as §1, with “Tissues collected from patients (endometrium, adenomyosis, endometriosis and myoma). Tissues were cultivated in media and treated during 24 hours with either DMSO, alpelisib or ST420 (Compound having formula I and/or its derivatives). Then, they” for “Tissues”, “and” for “and then”, “Laboratories). […]” for “Laboratories).”

P-AKTSer473 [2] = experiment: Patient tissues (healthy endometrium, adenomyosis or endometriosis lesions) treated in vitro, Western blot of P-AKT; format: cell-based, human; settings: healthy endometrium and lesions of adenomyosis or endometriosis from patients, exposed in vitro during 24 hours to different doses; Western blot P-AKTSer473 (Figure 3B)
Description: as §1
as §1, with “Tissues collected from patients (endometrium, adenomyosis, endometriosis and myoma). Tissues were cultivated in media and treated during 24 hours with either DMSO, alpelisib or ST420 (Compound having formula I and/or its derivatives). Then, they” for “Tissues”, “and” for “and then”
PIK3CA pharmacological inhibitors are developed for oncology and other medical situations. […]

[3] = patients treated with alpelisib; cited from earlier work

In the case of `Cc1nc(NC(=O)N2CCC[C@H]2C(N)=O)sc1-c1ccnc(C(C)(C)C(F)(F)F)c1` [alpelisib], the “inhibition of the PIK3CA pathway in myoma” value (P-AKTSer473 [1]) is given as “able to inhibit the pathway in myoma”, the “phosphorylation of AKT” value (P-AKTSer473 [2]) is given as “able to shut down the phosphorylation of AKT” and the “insulin resistance which can lead to diabetes, share of patients” value [3] is given as “about 30%”.
